Measurements: patent US6518012B1, “Method for regulating the expression of MHC antigens and CD40 by inhibitors of histone deacetylation” (Health Research, Inc., priority 1999, dated 2003)

Assays:
[1] = test system: DP and DQ isotypes of MHC class II mRNA; test: mRNA for DP and DQ isotypes of MHC class II in SK-N-MC; type: cell-based, human; settings: data not shown
[2] = test system: CD40; test: Cell surface CD40 by flow cytometry on SK-N-MC; type: cell-based, human; settings: 50 nM TSA 48 hours
[3] = test system: MC, Colon 26 and J558 cells; test: Cell cycle analysis by DNA staining and flow cytometry; type: cell-based; settings: TSA concentrations used in FIG. 8 (50 nM 48 hours MC and Colon 26; 25 nM 24 hours J558); data not shown
Description: (§1) To determine the effect of TSA on cell surface protein expression, the J558 cell line was subjected to flow cytometric analyses as follows. Flow cytometric analyses were conducted by standard methods using cells fixed with 1.0% paraformaldehyde and analyzed on the FACScan (Becton Dickinson). Cell cycle analyses were carried out by flow cytometry with PI staining of genomic DNA. Cells were fixed and permeablized in methanol, treated with RNaseA and analyzed for DNA content by determination of FL3-area on the FACScan. The FL3-area data were analyzed with the ModFit software for determination of the percent cells in each phase of the cell cycle. In some cases, fluorescein isothiocyanate (FITC)-conjugated antibody staining was conducted prior to PI treatment and surface staining was analyzed as a function of cell cycle phase. Apoptosis was analyzed by staining with annexin-V directly conjugated with either FITC or RPE and by sub-G0 analysis of DNA staining. […] Isotype controls were analyzed and, in each case, fell on or below the levels shown for control cells. […] Since all cells were positive for MHC class I expression, the number under the histogram represents -fold change of expression calculated from the mean channel-shift after treatment relative to untreated cells. […]

[4] = test system: MC, Colon 26 and J558 cells; test: Apoptosis by flow cytometry (sub-G0 PI staining, annexin-V); type: cell-based; settings: low concentrations of TSA employed in FIG. 8
Description: as §1

Compound: CC(/C=C/C(=O)NO)=C\[C@@H](C)C(=O)c1ccc(N(C)C)cc1 [TSA, Trichostatin A]
- mRNA for the DP and DQ isotypes of MHC class II [1]: induced
- expression of CD40 on cell surface [2]: induced expression
- effect on the cell cycle [3]: did not significantly alter
- apoptosis [4]: could not be detected
